According to patent publication US20050065187A1, “Novel antimicrobial aryloxazolidinone compounds” (priority 2003, published 2005):
Values after ≈ are worked out from the molar mass of the structure shown.

Tests used:
Experiment in all cases: Antibacterial assay (Test A), microtitration MIC
SAUR 9213 = format: cell-based, S. aureus; settings: Staphylococcus aureus; Minimum Inhibitory Concentration, strain SAUR 9213; read-out: SAUR 9213 MIC
Description: (§1) Test A—Antibacterial Assays
(§2) The compounds of the present invention were tested against an assortment of Gram-negative and Gram-positive organisms using standard microtitration techniques (Cohen et. al., Antimicrob., 1985;28:766; Heifetz, et. al., Antimicrob., 1974;6:124).

HINF 30063 = format: cell-based, H. influenza; settings: Minimum Inhibitory Concentration, strain HINF 30063
Description: as §1, §2

SPNE 9912 = format: cell-based, S. pneumoniae; settings: Streptococcus pneumoniae; Minimum Inhibitory Concentration, strain SPNE 9912; read-out: SPNE 9912 MIC
Description: as §1, §2

MC 30603 = format: cell-based, M. catarrhalis; settings: Moraxella catarrhalis; Minimum Inhibitory Concentration, strain MC 30603; read-out: MC 30603 MIC
Description: as §1, §2

CON=C1CCC(c2ccc(N3C[C@H](CNC(C)=O)OC3=O)cc2F)CC1 (some centres unmarked) [Example 22, N-{3-[3-Fluoro-4-(4-methoxyimino-cyclohexyl)-phenyl]-2-oxo-oxazolidin-5-ylmethyl}-acetamide] showed an MIC (SAUR 9213) of 2 µg/mL (≈ 5.3 µM), an MIC (HINF 30063) of 32 µg/mL (≈ 84.8 µM) and an MIC (SPNE 9912) of 1 µg/mL (≈ 2.65 µM). The MIC (MC 30603) was 1 µg/mL (≈ 2.65 µM).
NC(=O)[C@H]1CN(c2ccc(C3CCC(=O)CC3)c(F)c2)C(=O)O1 [Example 24, 3-[3-Fluoro-4-(4-oxo-cyclohexyl)-phenyl]-2-oxo-oxazolidine-5-carboxylic acid amide] was tested, and the MIC (SAUR 9213) was 1 µg/mL (≈ 3.12 µM), the MIC (HINF 30063) was 32 µg/mL (≈ 99.9 µM) and the MIC (SPNE 9912) was 2 µg/mL (≈ 6.24 µM). For the same compound, the MIC (MC 30603) was 32 µg/mL (≈ 99.9 µM).
